Key:
[1] = Pharmacokinetics of LTB4 in rats after i.v., i.j. and s.c. administration (plasma ELISA); assay type: in vivo, female Sprague-Dawley rats; details: rat
Description: In this example, the pharmacokinetics of LTB4 in rats following administration by three distinct routes, intravenous (i.v.), intra-jejunal (i.j.) and sub-cutaneous (s.c.) was investigated.
Three groups of three female Sprague-Dawley rats (weighing ˜250 g) were used; animals were fasted for 18 hours, anesthetised with ketamine/xylazine and their jugular veins were canulated to allow for repeated blood sampling. LTB4 was administered at the dose of 50 μg/kg at the dose volume of 4 ml/kg for all routes. Blood samples (0.5 ml/sample) where taken at 0, 0.5, 1, 2, 5, 15, 30, and 60 minutes following LTB4 injection. The blood samples where immediately anti-coagulated with EDTA and transferred into an ice-water bath until centrifugation for plasma isolation. Plasma samples were stored at −80° C. until assayed for LTB4 content using a commercial ELISA (Cayman Chemicals, Ann Arbor, Mich., USA). The i.v administration (15 sec. bolus) of LTB4 was done through the tail vein; for i.j. administration, LTB4 was directly injected in the jejunum after opening of the abdominal cavity; s.c. administration was done in the dorsal region.

[2] = Forced degradation of ethanolic solutions of LTB4 (acid form and Na salt); assay type: physicochemical
Description: The ethanolic solution of LTB4 (acid form) (EtOH/water, 95/5) obtained from the manufacturer (Cascade Biochem, UK) was diluted with EtOH/water, 95/5 to generate ethanolic solutions of LTB4 (acid form) at 9 and 0.9 mg/ml. Ethanolic solutions of the sodium salt of LTB4 at 9 and 0.9 mg/ml were obtained by adding 1.05 equivalent of sodium hydroxide. Solutions of the sodium salt of LTB4 at the concentration of 9 and 0.9 mg/ml in 75/25 EtOH/10 mM glycine in water at pH 10.5 (sodium hydroxide), were obtained by mixing 3 volumes of solutions of the sodium salt of LTB4 at 12 and 1.2 mg/ml in EtOH/water, 95/5 with 1 volume of 40 mM glycine buffer at pH 10.5. Solutions were dispensed in 2 ml vials for storage under air in the dark at −80° C. and 40±5° C. for 17 months prior to reverse phase HPLC analysis of LTB4 and impurities as described in Example 1.

CCCCC/C=C\C[C@@H](O)/C=C/C=C/C=C\[C@@H](O)CCCC(=O)O [LTB4, 5S,12R-dihydroxy-6,8,10,14(Z,E,E,Z)-eicosatetrae-noic acid]
time of maximum plasma LTB4 level ([1]; i.j. administration, 50 μg/kg): 5 min | time of return of LTB4 plasma levels to baseline ([1]; i.j. administration, 50 μg/kg): 30 min | AUC for LTB4 plasma concentration, comparison of routes ([1]; i.v. injection, 50 μg/kg, compared with i.j. and s.c.): highest AUC | AUC for i.j. injection relative to that of i.v. LTB4 ([1]; in vivo, 50 ug/kg): 35% | impurity level ([2]; 0.9 mg/ml in 95/5 EtOH/water, 17 months at 40° C.): 62 % of AUC | level of impurities ([2]; 9.0 mg/ml in EtOH/water 95/5, 17 months at 40° C., AUC at 270 nm): 100 % of AUC
